For series [1], the target named is T1, recombinant thioredoxin reductase 1 (TrxR1) (Homo sapiens, UniProt Q16881).
T1 sequence (Q16881 1-649): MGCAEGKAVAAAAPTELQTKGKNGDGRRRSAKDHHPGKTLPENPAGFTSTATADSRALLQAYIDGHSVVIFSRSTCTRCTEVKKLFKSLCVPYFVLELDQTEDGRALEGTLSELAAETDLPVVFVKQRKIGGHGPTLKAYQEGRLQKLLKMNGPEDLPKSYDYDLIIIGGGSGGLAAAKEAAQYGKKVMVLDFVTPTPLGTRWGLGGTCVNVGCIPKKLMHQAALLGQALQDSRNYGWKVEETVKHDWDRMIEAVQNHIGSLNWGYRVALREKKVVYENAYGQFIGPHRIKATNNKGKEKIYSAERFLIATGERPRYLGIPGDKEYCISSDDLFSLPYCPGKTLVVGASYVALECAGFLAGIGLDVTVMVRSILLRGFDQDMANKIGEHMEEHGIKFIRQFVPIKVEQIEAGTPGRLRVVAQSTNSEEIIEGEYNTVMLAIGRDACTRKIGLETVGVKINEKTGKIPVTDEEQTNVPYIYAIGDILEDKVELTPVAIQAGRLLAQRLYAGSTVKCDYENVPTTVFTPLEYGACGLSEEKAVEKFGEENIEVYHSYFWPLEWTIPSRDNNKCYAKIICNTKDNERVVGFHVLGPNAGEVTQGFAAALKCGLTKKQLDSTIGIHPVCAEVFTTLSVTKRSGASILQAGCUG
The experiment in a line: Inhibition of recombinant TrxR1 (DTNB assay). Format: biochemical. A digest of the protocol: (§1)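 Human TrxR1 (15 nM) or GR (2 nM) preincubated 15 min with compound, 250 μM NADPH, 0.1 mg/ml BSA in 50 mM Tris pH 7.5, 2 mM EDTA, 1% DMSO. Reaction started with 2.5 mM DTNB (TrxR1, A412) or 1 mM GSSG (GR, A340). Percent activity relative to DMSO and no-enzyme blanks.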

Series [2] has as its system FaDu cells. The settings on record: mouse, in vivo, 15 mg/kg. The method, then: Fox Chase male severe combined immunodeficiency (SCID, Charles River, #250) mice were inoculated with 1×10^6 FaDu cells in PBS at a pre-shaved region located at the anterior lateral thoracic wall. After 13 days of growth, tumors were caliper measured and treatments were initiated. Mice were injected with 15 mg/kg of the compound of Example 1, or vehicle a total of nine times in a five-day span via i.v. tail injection. Upon the final dose, injections were performed subcutaneously (s.c.) due to pronounced hematomas at the tail injection site. Mouse health status was monitored daily, weight was measured, and tumor volume was recorded from caliper measurements. […] Tumor growth was normalized to day 0 caliper measurements, and treatment with the compound of Example 1 (N=6, p<0.01) was compared to vehicle (N=4) using a repeated measures ANOVA with a Dunnett's multiple comparison post test.

Series [3] addresses T2, gluthathione reductase (GR) (Homo sapiens, UniProt P00390).
T2 sequence (P00390 44-522): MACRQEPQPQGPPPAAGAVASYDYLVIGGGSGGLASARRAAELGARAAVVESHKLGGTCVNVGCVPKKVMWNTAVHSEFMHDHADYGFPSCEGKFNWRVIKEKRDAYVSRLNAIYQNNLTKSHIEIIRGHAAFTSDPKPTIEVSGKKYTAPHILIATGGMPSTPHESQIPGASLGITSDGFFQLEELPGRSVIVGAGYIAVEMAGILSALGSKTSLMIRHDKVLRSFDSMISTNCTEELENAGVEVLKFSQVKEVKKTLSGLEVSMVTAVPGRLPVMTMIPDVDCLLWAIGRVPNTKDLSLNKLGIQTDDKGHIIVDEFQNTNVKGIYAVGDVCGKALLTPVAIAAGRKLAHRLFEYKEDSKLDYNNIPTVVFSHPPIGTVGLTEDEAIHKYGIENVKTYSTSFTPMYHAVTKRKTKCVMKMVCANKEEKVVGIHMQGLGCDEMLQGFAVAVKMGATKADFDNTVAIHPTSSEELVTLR
Put plainly: Inhibition of recombinant GR (GSSG assay). Format: biochemical. Put shortly:
as §1

Series [4] relates to SF-295. Put plainly: Cell growth inhibition GI50. Format: cell-based. The settings on record: Homo sapiens, CNS Cancer. The method, then:
(§2) Cell lines were plated 2000 cells/well in 96-well black optical plates in the presence of 10% FBS media containing 25 nM selenite. The following day cells were treated with various concentrations of the compound of Example 1 (0.1% DMSO final) and incubated for 72 hrs. After the incubation Cell-Quanti Blue reagent was added to each well and incubated for additional 3 hrs. Fluorescence was read ex:530 nm/em:590 nm, and percent of viability was determined using DMSO vehicle and no cell (blank) controls.
(§3) Further results obtained in similar experiments were as indicated below (GI50 refers to concentration of compound yielding 50% growth inhibition; E denotes an exponent to the base 10).

The subject of series [5] is OVCAR-3. The experiment in a line: Cell growth inhibition GI50. The conditions noted are these: Homo sapiens, Ovarian Cancer. Format: cell-based. The procedure:
as §2, §3

The subject of series [6] is HCT-15. The experiment in a line: Cell growth inhibition GI50. It is filed as cell-based. The settings on record: Homo sapiens, Colon Cancer. The method, then: as §2, §3
The subject of series [7] is TK-10. The experiment in a line: Cell growth inhibition GI50. It is filed as cell-based. The settings on record: Homo sapiens, Renal Cancer. The method, then:
as §2, §3

In series [8] the test system is HOP-62. The experiment in a line: Cell growth inhibition GI50. Format: cell-based. The conditions noted are these: Homo sapiens, Non-Small Cell Lung Cancer. The procedure: as §2, §3
Series [9] concerns IGROV1. Put plainly: Cell growth inhibition GI50. It is filed as cell-based. The settings on record: Homo sapiens, IGROV-1, Ovarian Cancer. The method, then: as §2, §3
The subject of series [10] is SW-620. The experiment in a line: Cell growth inhibition GI50. It is filed as cell-based. The conditions noted are these: Homo sapiens, Colon Cancer. The procedure:
as §2, §3

The subject of series [11] is OVCAR-5. Put plainly: Cell growth inhibition GI50. The settings on record: Homo sapiens, Ovarian Cancer. It is filed as cell-based. The method, then: as §2, §3
Series [12] relates to KM12. Put plainly: Cell growth inhibition GI50. Format: cell-based. The settings on record: Homo sapiens, Colon Cancer. The procedure:
as §2, §3

In series [13] the test system is U251. The experiment in a line: Cell growth inhibition GI50. Format: cell-based. The conditions noted are these: Homo sapiens, U-251, CNS Cancer. The procedure: as §2, §3

SMILES strings stand for the structures. Where a name gives a salt, the structure may show the parent alone. Read-outs that look alike come from different tables or passages of the source.

In general, GI50 refers to the concentration giving 50% growth inhibition. A high value points to lower sensitivity of the cells.

Regarding `O=C1C=C[C@H]2[C@@H]3C(=O)N(c4ccccc4)C(=O)[C@@H]3[C@@H]1N2Cc1ccccc1` (relative stereo) [Example 1, exo-11-Benzyl-4-phenyl-4,11-diazatricyclo[5.3.1.0^2,6]undec-9-ene-3,5,8-trione Trifluoroacetate], the IC50 in series [1] (Biological Example 1, 15 nM TrxR1, 250 μM NADPH, 15 minutes incubation, read-out: TrxR inhibition) was 2140 nM; in series [1] (Biological Example 4, assays of Biological Example 1, read-out: TrxR Inhibition) it was 2190 nM; in [3] (Biological Example 1, 2 nM GR, 250 μM NADPH, 15 minutes incubation) it was above 100000 nM; in series [3] (Biological Example 4, assays of Biological Example 1) it was above 100000 nM. For the same compound, the “Signs of general or systemic toxic effects” value in [2] was “no overt signs of general or systemic toxic effects in normal cells or tissues”. Also, the GI50 was determined as 6410 nM in series [4]; 3440 nM in [5]; 1740 nM in series [6]; 8070 nM in [7]; 1380 nM in [8]; 4810 nM in series [9]. Further, the GI50 in series [10] is 1860 nM; in [11], 6750 nM; in [12] it was 2560 nM; in series [13], 2290 nM.

The values above are taken from patent publication US10881653B2, “Tricyclic compounds and their use in the treatment of cancer” (The United States of America, as represented by the …, priority 2015, dated 2021).
